What follows are compounds tested against 5-HT2A (Homo sapiens (Human), UniProt P28223) (assay: Radioligand binding assay, [^3H]5-HT competition, 5-HT2A). Conditions: [^3H]5-HT radioligand, membranes of HEK293 cells expressing recombinant 5-HT2A; Ki from IC50 by Cheng-Prusoff; read-out: 5-HT2A serotonin binding Ki value.
5-HT2A, sequence (P28223 whole entry): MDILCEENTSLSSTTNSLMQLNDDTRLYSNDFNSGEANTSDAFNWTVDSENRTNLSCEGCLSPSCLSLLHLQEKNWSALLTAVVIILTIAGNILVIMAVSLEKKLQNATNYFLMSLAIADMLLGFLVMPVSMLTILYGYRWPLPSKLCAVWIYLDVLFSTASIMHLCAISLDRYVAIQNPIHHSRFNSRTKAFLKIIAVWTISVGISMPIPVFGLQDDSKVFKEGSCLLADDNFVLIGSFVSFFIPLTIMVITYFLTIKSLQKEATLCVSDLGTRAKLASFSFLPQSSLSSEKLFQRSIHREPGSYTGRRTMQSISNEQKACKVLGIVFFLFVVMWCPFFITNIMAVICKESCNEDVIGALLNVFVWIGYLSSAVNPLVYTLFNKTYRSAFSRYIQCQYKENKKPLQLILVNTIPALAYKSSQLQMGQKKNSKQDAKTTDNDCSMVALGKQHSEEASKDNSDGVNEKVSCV
Compound `Cc1ncnc(C)c1-c1cc(NC(=O)C2CC2)ccc1OCCN1CCC2(CCOC2=O)CC1` [Compound 350, N-(3-(4,6-dimethylpyrimidin-5-yl)-4-(2-(1-oxo-2-oxa-8-azaspiro[4.5]decan-8-yl)ethoxy)phenyl)cyclopropanecarboxamide] has a Ki of 43.1 nM. With `Cc1ncnc(C)c1-c1cc(NC(=O)c2c(F)ccn2C)ccc1OCCN1CCCC1` [Compound 295, N-[3-(4,6-dimethylpyrimidin-5-yl)-4-(2-pyrrolidin-1-ylethoxy)phenyl]-3-fluoro-1-methyl-pyrrole-2-carboxamide] the Ki was 2.01 nM. Compound `COCCNCCOc1ccc(NC(=O)c2ccc(F)cc2)cc1-c1c(C)ncnc1C` [Compound 374, N-(3-(4,6-dimethylpyrimidin-5-yl)-4-(2-((2-methoxyethyl)amino)ethoxy)phenyl)-4-fluorobenzamide] has a Ki of 3.44 nM. `Cc1cccc(C(=O)Nc2ccc(OCCN3CCCC3)c(-c3c(C)ncnc3C)c2)c1` [Compound 300, N-(3-(4,6-dimethylpyrimidin-5-yl)-4-(2-(pyrrolidin-1-yl)ethoxy)phenyl)-3-methylbenzamide] gave a Ki of 1.48 nM. Work on `Cc1ncoc1C(=O)Nc1ccc(OC[C@H]2CCCCN2)c(-c2c(C)ncnc2C)c1` [Compound 428, (R)—N-(3-(4,6-dimethylpyrimidin-5-yl)-4-(piperidin-2-ylmethoxy)phenyl)-4-methyloxazole-5-carboxamide] yielded a Ki of 35.3 nM. Work on `Cc1nscc1C(=O)Nc1ccc(OC[C@H]2CCCCN2)c(-c2c(C)ncnc2C)c1` [Compound 434, (R)—N-(3-(4,6-dimethylpyrimidin-5-yl)-4-(piperidin-2-ylmethoxy)phenyl)-3-methylisothiazole-4-carboxamide] yielded a Ki of 19.3 nM. Work on `Cc1ncnc(C)c1-c1cc(NC(=O)C2CC2)ccc1OCCN1CCN2C(=O)OCC2C1` (centres unmarked) [Compound 343, N-[3-(4,6-dimethylpyrimidin-5-yl)-4-[2-(3-oxo-5,6,8,8a-tetrahydro-1H-oxazolo[3,4-a]pyrazin-7-yl)ethoxy]phenyl]cyclopropanecarboxamide] yielded a Ki of 48.4 nM. `COC1(C(=O)Nc2ccc(OC[C@H]3CCCCN3)c(-c3c(C)ncnc3C)c2)CC1` [Compound 439, (R)—N-(3-(4,6-dimethylpyrimidin-5-yl)-4-(piperidin-2-ylmethoxy)phenyl)-1-methoxycyclopropane-1-carboxamide] gave a Ki of 14.6 nM. In the case of `Cc1cc(C(=O)Nc2ccc(OCCN3CCCC3)c(-c3c(C)ncnc3C)c2)co1` [Compound 204, N-(3-(4,6-dimethylpyrimidin-5-yl)-4-(2-(pyrrolidin-1-yl)ethoxy)phenyl)-5-methylfuran-3-carboxamide], the Ki is reported as 13.2 nM. In the case of `Cc1ncnc(C)c1-c1cc(NC(=O)[C@@H]2C[C@@H]2F)ccc1OCCN1CCOCC1` [Compound 392, (1S,2S)—N-[3-(4,6-dimethylpyrimidin-5-yl)-4-(2-morpholinoethoxy)phenyl]-2-fluoro-cyclopropanecarboxamide], the Ki is reported as 15.2 nM. In the case of `Cc1ncnc(C)c1-c1cc(NC(=O)Cc2cnco2)ccc1OCCN1CCCC1` [Compound 260, N-[3-(4,6-dimethylpyrimidin-5-yl)-4-(2-pyrrolidin-1-ylethoxy)phenyl]-2-oxazol-5-yl-acetamide], the Ki is reported as 63.3 nM. `Cc1cnn(C)c1C(=O)Nc1ccc(OCCN2CCCC2)c(-c2c(C)ncnc2C)c1` [Compound 292, N-(3-(4,6-dimethylpyrimidin-5-yl)-4-(2-(pyrrolidin-1-yl)ethoxy)phenyl)-1,4-dimethyl-1H-pyrazole-5-carboxamide] gave a Ki of 17.6 nM. Compound `Cc1nc(C)c(C(=O)Nc2ccc(OC[C@H]3CCCCN3)c(-c3c(C)ncnc3C)c2)s1` [Compound 426, (R)—N-(3-(4,6-dimethylpyrimidin-5-yl)-4-(piperidin-2-ylmethoxy)phenyl)-2,4-dimethylthiazole-5-carboxamide] has a Ki of 87.2 nM. For `Cc1ncnc(C)c1-c1cc(NC(=O)c2cnoc2C)ccc1OC[C@H]1CCCCN1` [Compound 431, (R)—N-(3-(4,6-dimethylpyrimidin-5-yl)-4-(piperidin-2-ylmethoxy)phenyl)-5-methylisoxazole-4-carboxamide], the Ki was 54.9 nM. Work on `Cc1ncnc(C)c1-c1cc(NC(=O)Cc2ccon2)ccc1OCCN1CCCC1` [Compound 262, N-(3-(4,6-dimethylpyrimidin-5-yl)-4-(2-(pyrrolidin-1-yl)ethoxy)phenyl)-2-(isoxazol-3-yl)acetamide] yielded a Ki of 35.7 nM. For `CCN(CCF)CCOc1ccc(NC(=O)C2CC2)cc1-c1c(C)ncnc1C` [Compound 362, N-[3-(4,6-dimethylpyrimidin-5-yl)-4-[2-[ethyl (2-fluoroethyl)amino]ethoxy]phenyl]cyclopropanecarboxamide], the Ki was 96.5 nM. Compound `COc1ccc(CC(=O)Nc2ccc(OCCN3CCC3)c(-c3c(C)ncnc3C)c2)cc1` [Compound 313, N-(4-(2-(azetidin-1-yl)ethoxy)-3-(4,6-dimethylpyrimidin-5-yl)phenyl)-2-(4-methoxyphenyl)acetamide] has a Ki of 1.7 nM. For `Cc1ncnc(C)c1-c1cc(NC(=O)C2CC2)ccc1OCCN(C)CC[S+](C)[O-]` (centres unmarked) [Compound 365, N-[3-(4,6-dimethylpyrimidin-5-yl)-4-[2-[methyl (2-methylsulfinylethyl)amino]ethoxy]phenyl]cyclopropanecarboxamide], the Ki was 232 nM. Compound `Cc1ncnc(C)c1-c1cc(NC(=O)c2cc(C(C)C)n[nH]2)ccc1OCCN1CCCC1` [Compound 206, N-(3-(4,6-dimethylpyrimidin-5-yl)-4-(2-(pyrrolidin-1-yl)ethoxy)phenyl)-3-isopropyl-1H-pyrazole-5-carboxamide] has a Ki of 6.51 nM. With `Cc1ncnc(C)c1-c1cc(NC(=O)C2CC2)ccc1O[C@H]1CCNC1` [Compound 404, (S)—N-(3-(4,6-dimethylpyrimidin-5-yl)-4-(pyrrolidin-3-yloxy)phenyl)cyclopropanecarboxamide] the Ki was 69.2 nM. `Cc1ncnc(C)c1-c1cc(NC(=O)[C@@]23COC[C@@H]2C3)ccc1OCCN1CCCC1` [Compound 246, (1R,5R)—N-[3-(4,6-dimethylpyrimidin-5-yl)-4-(2-pyrrolidin-1-ylethoxy)phenyl]-3-oxabicyclo[3.1.0]hexane-1-carboxamide] gave a Ki of 16.3 nM. `Cc1ncnc(C)c1-c1cc(NC(=O)CN2CCn3cnnc3C2)ccc1OCCN1CCCC1` [Compound 240, 2-(5,6-dihydro-[1,2,4]triazolo[4,3-a]pyrazin-7 (8H)-yl)-N-(3-(4,6-dimethylpyrimidin-5-yl)-4-(2-(pyrrolidin-1-yl)ethoxy)phenyl)acetamide] showed a Ki of 60900 nM. In the case of `Cc1ncnc(C)c1-c1cc(NC(=O)C2CC2)ccc1OCCN1CCN(C(=O)C(=O)O)CC1` [Compound 340, 2-[4-[2-[4-(cyclopropanecarbonylamino)-2-(4,6-dimethylpyrimidin-5-yl)phenoxy]ethyl]piperazin-1-yl]-2-oxo-acetic acid], the Ki is reported as 374 nM. Work on `Cc1ncnc(C)c1-c1cc(NC(=O)c2cccc(F)c2)ccc1OC[C@H]1CCCCN1` [Compound 449, (R)—N-(3-(4,6-dimethylpyrimidin-5-yl)-4-(piperidin-2-ylmethoxy)phenyl)-3-fluorobenzamide] yielded a Ki of 6.49 nM. `Cc1cnoc1C(=O)Nc1ccc(OCCN2CCCC2)c(-c2c(C)ncnc2C)c1` [Compound 216, N-(3-(4,6-dimethylpyrimidin-5-yl)-4-(2-(pyrrolidin-1-yl)ethoxy)phenyl)-4-methylisoxazole-5-carboxamide] gave a Ki of 16.6 nM. In the case of `Cc1cccc(C(=O)Nc2ccc(OCCN3CCC3)c(-c3c(C)ncnc3C)c2)c1` [Compound 322, N-(4-(2-(azetidin-1-yl)ethoxy)-3-(4,6-dimethylpyrimidin-5-yl)phenyl)-3-methylbenzamide], the Ki is reported as 3.39 nM.
